Where only a bound is given, the exact number is not on record here.

Experimental findings from patent publication US11725004B2, “(Cyano-dimethyl-methyl)-isoxazoles and -[1,3,4]thiadiazoles” (Centrexion Therapeutics Corporation, priority 2013, dated 2023) are described below.

The target of this assay is human CB1R (Homo sapiens (Human), UniProt P21554). Briefly: CB1 cAMP (Assay 2): in vitro testing of CB1 potency. The conditions noted are these: CHO cells expressing human CB1R; inhibition of forskolin-stimulated cAMP. In kind it is cell-based.
Sequence of human CB1R (P21554 whole entry): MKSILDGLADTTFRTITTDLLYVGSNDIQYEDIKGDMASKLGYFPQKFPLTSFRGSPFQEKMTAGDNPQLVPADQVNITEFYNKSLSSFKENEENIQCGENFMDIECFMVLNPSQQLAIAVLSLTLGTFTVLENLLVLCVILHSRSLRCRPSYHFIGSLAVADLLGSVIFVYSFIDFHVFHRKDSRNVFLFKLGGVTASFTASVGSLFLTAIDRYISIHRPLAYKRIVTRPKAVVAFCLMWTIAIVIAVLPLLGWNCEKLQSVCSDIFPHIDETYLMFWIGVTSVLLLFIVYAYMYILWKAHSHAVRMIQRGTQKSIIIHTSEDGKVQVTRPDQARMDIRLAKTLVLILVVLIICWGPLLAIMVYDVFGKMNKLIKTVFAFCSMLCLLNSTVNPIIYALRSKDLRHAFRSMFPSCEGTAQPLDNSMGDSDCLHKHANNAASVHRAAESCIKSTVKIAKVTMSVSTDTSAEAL
A word on the IC50: it is the midpoint of a concentration-inhibition curve. Turning to `CC(C)(O)c1cc(NC(=O)C(C)(C)S(=O)(=O)CCCC(F)(F)F)on1` [Example 134 in WO2010036630], it took 26 µM to reach half-maximal inhibition (IC50).

`CN(C1CCN(S(C)(=O)=O)CC1)C(C)(C)C(=O)Nc1cc(C(C)(C)CO)no1` [Example 47 in WO2010147792] came in with a half-inhibitory concentration (IC50) of 3.1 µM. Take `CC(C)(C#N)c1cc(NC(=O)C(C)(C)S(=O)(=O)C2CCOCC2)on1` [Example 3]: the half-inhibitory concentration (IC50) is > 200 µM. In turn, `COCC(C)(C)c1cc(NC(=O)C(C)(C)N(C)CC2CCOCC2)on1` [Example 46 in WO2010147792] gave a 50% inhibitory concentration (IC50) of 0.923 µM. With `CC(C)(C#N)c1cc(NC(=O)C(C)(C)S(=O)(=O)CCCC(F)(F)F)on1` [Example 1, N-[3-(Cyano-dimethyl-methyl)-isoxazol-5-yl]-2-methyl-2-(4,4,4-trifluoro-butane-1-sulfonyl)-propionamide] the figure was 104 µM. For `CC(C)(CO)c1cc(NC(=O)C(C)(C)S(=O)(=O)CC2CCOCC2)on1` [Example 1 in WO2010036630], the IC50 is > 50 µM. As for `COCC(C)(C)c1cc(NC(=O)C(C)(C)S(=O)(=O)C2CCOCC2)on1` [Example 38 in WO2010036630], 50 µM corresponded to half-maximal inhibition (IC50).

For `CC(C)(C#N)c1cc(NC(=O)C(C)(C)S(=O)(=O)CC2CCOCC2)on1` [Example 2, N-[3-(Cyano-dimethyl-methyl)-isoxazol-5-yl]-2-methyl-2-(tetrahydro-pyran-4-ylmethanesulfonyl)-propionamide], the IC50 was > 200 µM.

Consider `CN(CC1CCOCC1)C(C)(C)C(=O)Nc1nnc(C(C)(C)C#N)s1` [Example 7, N-[5-(Cyano-dimethyl-methyl)-[1,3,4]thiadiazol-2-yl]-2-methyl-2-[methyl-(tetrahydro-pyran-4-ylmethyl)-amino]-propionamide], for which the IC50 is > 200 µM. With `CN(CC1CCOCC1)C(C)(C)C(=O)Nc1cc(C(C)(C)C#N)no1` [Example 4], the IC50 was 39.4 µM. Take `CN(C1CCN(S(C)(=O)=O)CC1)C(C)(C)C(=O)Nc1nnc(C(C)(C)C#N)s1` [Example 8]: inhibition was half-maximal at 69 µM (IC50). Compared with the last compound, the IC50 is about 1.8-fold higher.

Consider `CC(C)(CO)c1cc(NC(=O)C(C)(C)S(=O)(=O)CCCC(F)(F)F)on1` [Example 7 in WO2010036630], for which the IC50 stood at 28 µM. For `CC(C)(O)c1cc(NC(=O)C(C)(C)S(=O)(=O)C2CCOCC2)on1` [Example 133 WO2010036630], the IC50 is > 200 µM.

In turn, `COCC(C)(C)c1cc(NC(=O)C(C)(C)S(=O)(=O)CC2CCOCC2)on1` [Example 17 in WO2010036630] gave an IC50 of 8.6 µM. With `CN(CC1CCOCC1)C(C)(C)C(=O)Nc1nnc(C(C)(C)CO)s1` [Example 30 in WO2010147792] the figure was 120 µM; with `CC(C)(CO)c1cc(NC(=O)C(C)(C)S(=O)(=O)C2CCOCC2)on1` [Example 2 in WO2010036630], 150 µM. `CN(C1CCN(S(C)(=O)=O)CC1)C(C)(C)C(=O)Nc1cc(C(C)(C)C#N)no1` [Example 5] registered a 50% inhibitory concentration (IC50) of 2.5 µM.

`CN(CC1CCOCC1)C(C)(C)C(=O)Nc1cc(C(C)(C)CO)no1` [Example 7 in WO2010147792] gave an IC50 of 8.08 µM. This IC50 lies about 3.2-fold higher than the previous one.
